According to patent US20080167189A1, “Polymer Compositions and Their Use in the Production of Active or Effective Ingredient Compositions” (Basf Aktiengesellschaft, priority 2005, published 2008):
Values after ≈ are worked out from the molar mass of the structure shown.

Legend:
[1] = Solubility of the active compounds in distilled water
physchem = conditions: water

SMILES | solubility [1] | solubility (physchem)
COC(=O)N(OC)c1ccccc1COc1ccn(-c2ccc(Cl)cc2)n1 [Pyraclostrobin] | 2.4 µg/mL (≈ 6.19 µM) | 
O=C(Nc1ccccc1-c1ccc(Cl)cc1)c1cccnc1Cl [Boscalid] |  | 4.6 µg/mL (≈ 13.4 µM)
